According to patent US5814467A, “APO AI polypeptides, diagnostic methods and systems for quantifying APO AI, and therapeutic methods” (The Scripps Research Institute, priority 1994, dated 1998):
“Also recorded” adds a separate entry of the source.

What was measured:
[1] = tested on: monoclonal antibody AI-11; assay: Solid-phase polypeptide direct binding ELISA; parameters: species or system mouse; settings: peptide coated at 50 μg/ml; 0.5 μg/ml HRP-conjugated AI-11
Method: Apo AI polypeptides AI84-111, AI85-111, AI90-111, AI93-111, AI94-111, AI-94-125, AI96-111, AI99-111, and AI99-114 were tested for immunoreactivity with monoclonal antibody AI-11 in a direct binding ELISA. In the assay, 50 μg/ml of each polypeptide was dissolved in PBS to form a peptide coating solution, of which 150 μl was admixed into the wells of a flexible polyvinyl chloride microtiter plate (Immulon). The wells were then maintained about 16 to 20 at 4° C. to permit the peptide to absorb onto (coat) the walls of the wells. After removing the peptide coating solution by shaking, the wells were washed once with 350 μl of rinsing buffer (PBS containing 1 g/l BSA, 0.5 ml/l Tween 20, and 2 μl/1 aprotinin). Excess protein binding sites were blocked by admixing 200 μl of blocking buffer (PBS containing 3% BSA) into each well, maintaining the wells for 1 hour at 37° C., removing the blocking buffer by shaking, and then washing the wells 3 times as previously described. The plate was then dried for 1 hour at 37° C. followed by addition of 100 μl of PBS containing 0.5 μg/ml horseradish peroxidase conjugated AI-11 antibody to form a solid-liquid phase immunoreaction admixture. The resulting solid-liquid phase immunoreaction admixture was maintained at 20° C. for 1 hour to permit formation of a solid-phase polypeptide-containing immunoreaction product. The wells were then washed 3 times with rinsing buffer to remove unbound antibody.
The amount of immunoreaction product present in the solid phase was then determined by admixing two hundred microliters of OPD substrate into each well to form a developing-reaction admixture. The admixture was maintained for 30 minutes at about 20° C. Subsequently, 50 μl of 4N H2 SO4 were admixed into each well to stop the developing-reaction, and the resulting solution was assayed for absorbance at 450 nanometers using a microtiter plate reader (Dynatech) to detect the amount of formed immunoreaction product.

[2] = tested on: MAB AI-4; assay: Competitive RIA, MAB AI-4 binding to Apo AI/HDL-coated wells; parameters: species or system mouse; settings: FIG. 3 and FIG. 4
Method: The immunoreactivity of MAB AI-4 for native Apo AI/HDL and various synthetic polypeptides was examined by a competitive RIA performed as follows:
(§1) One hundred μl of PBS (0.15M NaCl, 0.01M NaPO4, pH 7.2) containing 10 μg/ml Apo AI/HDL were admixed to the wells of microtiter plates. The plates were maintained for 1 hour at 20° C. on a rotating platform to allow the Apo AI/HDL to adhere to the wells and form solid supports. After aspirating excess liquid from the wells, 200 μl of block solution (3% BSA, 3% NGS in PBS) was admixed to each well, and the wells were maintained for 30 minutes at 20° C. on a rotating platform. Subsequently, the blocking solution was removed by aspiration, and the wells were washed 3 times with SPRIA buffer.
(§2) To each well was then admixed first with 50 μl of PBS containing 3% BSA and various concentrations of competitor antigen, i.e., Apo AI/HDL peptide, and, second, 50 μl of MAB AI-4 in the form of clarified ascites diluted 1:11.25×10^5 in PBS containing 3% BSA to form competitive immunoreaction admixtures. In control wells, either competing antigen or antibody was replaced by PBS containing 3% BSA.
(§3) The immunoreaction admixtures were maintained about 16 hours at 4° C. on a rotating platform to permit formation of solid-phase immunoreaction products. After washing the wells as previously described, 100 μl of ^125 I-labeled goat anti-mouse Ig (^125 I-goat anti-mouse Ig diluted to 2×10^5 trichloracetic acid precipitable disintegrations per minute per 100 μl in PBS containing 3% BSA) were admixed to each well. The labeling immunoreaction admixtures so formed were maintained for 4 hours at 4° C. on a rotating platform. Subsequently, the wells were washed with SPRIA buffer as previously described, and the amount of ^125 I-labeled solid-phase immunoreaction product formed was determined in a gamma counter.
The ability of MAB AI-4 to immunoreact with Apo AI/HDL was compared by using Apo AI/HDL and various synthetic peptides as competitors in the above-described RIA. B/Bo represents corrected CPMs which are plotted against increasing concentrations of competition in μg/ml. B/Bo values are determined in the following formula: [formula] where 0% CPM is a measure of non-specific background based on CPM obtained in RIAs where wells coated with Apo AI/HDL are reacted with the labeled secondary antibody in the absence of primary antibody and competitor, and where 100% CPM is a measure of the maximum non-competed binding of primary antibody to the substrate coated to the wells. The more efficiently a competitor binds to the primary antibody, the lower the B/Bo values.

[3] = tested on: MAB AI-11; assay: Competitive RIA, MAB AI-11 binding to Apo AI/HDL-coated wells; parameters: species or system mouse; settings: FIG. 5 and FIG. 6
Method: as §1, §2, §3
The immunoreactivity of MAB AI-11 for native Apo AI/HDL and various synthetic polypeptides was examined by a competitive RIA as described in Example 10A. […] Other peptides were evaluated for their ability to immunoreact with AI-1l MAE in competitive RIAs described herein.

[4] = biological target: T1, LCAT (Homo sapiens, UniProt P04180); settings: cited from earlier work
T1 sequence (P04180 25-440): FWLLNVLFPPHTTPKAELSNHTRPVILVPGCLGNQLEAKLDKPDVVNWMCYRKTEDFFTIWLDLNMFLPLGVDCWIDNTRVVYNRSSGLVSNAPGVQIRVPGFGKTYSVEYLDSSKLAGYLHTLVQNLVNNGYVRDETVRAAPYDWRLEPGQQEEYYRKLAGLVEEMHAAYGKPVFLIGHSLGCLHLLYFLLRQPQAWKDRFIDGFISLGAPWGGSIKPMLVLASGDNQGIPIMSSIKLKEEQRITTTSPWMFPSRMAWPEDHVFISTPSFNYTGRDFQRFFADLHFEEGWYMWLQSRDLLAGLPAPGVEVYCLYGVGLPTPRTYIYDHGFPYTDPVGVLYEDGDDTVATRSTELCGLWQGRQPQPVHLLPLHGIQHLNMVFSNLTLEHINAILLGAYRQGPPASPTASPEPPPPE

[5] = tested on: monoclonal antibody AI-11; assay: Competition ELISA, AI-11 binding to AI96-111-coated wells; parameters: species or system mouse; settings: FIG. 2, competitor from 1 mg/ml, serial 2-fold dilutions
Method: To determine the relative effectiveness of AI-11 binding to Apo AI synthetic polypeptides, a competition ELISA was performed with AI 96-111 as the test synthetic polypeptide in comparison to Apo AI-containing serum and purified Apo AI/HDL. Microtiter plates were coated with AI 96-111 as described hereinbefore. After the drying step of the assay described hereinbefore, 50 μl of a fluid sample (i.e., an Apo AI-containing fluid sample) or standard (i.e., an Apo AI polypeptide) to be assayed were admixed into the polypeptide AI96-111-coated well simultaneously with 50 μl of HRPO-conjugated AI-11 antibody to form an immunoreaction admixture. In the assay described herein, 3 competitors were tested for their ability to compete for binding of AI-11 to the AI 96-111 polypeptide coated over a range of dilutions. The polypeptide AI 96-111 was added in separate coated wells at a starting concentration of 1 mg/ml and diluted 2-fold serially 6 times down to a final concentration of 0.0156 mg/ml. Serum samples as described in Example 2 were added at a starting dilution of 1:10 and diluted 2-fold serially 6 times down to a final dilution of […]. Apo AI/HDL as described in Example 2 was added at a starting concentration of 1 mg/ml and diluted 2-fold 5 times down to a final concentration of 0.031 mg/ml. The plate was then incubated for 30 minutes at room temperature. […]

immunoreactivity with monoclonal antibody AI-11 in direct binding ELISA [1]	immunoreactivity with MAB AI-4, competition of binding to Apo AI/HDL [2]	immunoreactivity with MAB AI-11, competition of binding to Apo AI/HDL [3]	Substance	other results
not bound by the antibody	–	–	AI99-111: Apo AI polypeptide, residues 99-111 (PYLDDFQKKWQEE)	–
–	did not react	do not immunoreact	AI100-105: peptide derived from Apo AI, residues 100-105 (YLDDFQ)	–
–	did not react	–	AI101-111: peptide derived from Apo AI, residues 101-111 (LDDFQKKWQEE)	–
–	–	–	Apo AI fragment residues 148-185: Apo AI fragment residues 148-185 (Sparrow et al.) (MRDRARAHVDALRTHLAPYSDELRQRLAARLEALKENG; UniProt P02647 172-209, looked up, fragment)	involvement in activation of LCAT and lipid binding ([4]; Sparrow et al. 1980): involved in both activation of LCAT and lipid binding
–	–	–	Apo AI residues 121-164: synthetic polypeptide corresponding to Apo AI residues 121-164 (Fukushima et al.) (PLRAELQEGARQKLHELQEKLSPLGEEMRDRARAHVDALRTHLA; UniProt P02647 145-188, looked up, fragment)	effectiveness relative to native Apo AI in the activation of cholesterol esterification ([4]; Fukushima et al. 1980): 30%
–	competitively inhibit	competitively inhibit	Apo AI/HDL: Apo AI when it is present on HDL particles, isolated from plasma [reference compound]	competition for binding of AI-11 to coated AI96-111 [5]: competitively inhibit; competition for binding of AI-11 to coated AI96-111 ([5]; listed as purified HDL): greater affinity
–	partial reactivity	–	KAKVQPYLDDXQKKWQEEMEL (KAKVQPYLDDFQKKWQEEMEL) [AI94-114]	–

Substance	immunoreactivity with monoclonal antibody AI-11 in direct binding ELISA [1]	immunoreactivity with MAB AI-4, competition of binding to Apo AI/HDL [2]	immunoreactivity with MAB AI-11, competition of binding to Apo AI/HDL [3]	other results
KAKVQPYLDDXQKKWQEEMELYRQKVEPLRAE (KAKVQPYLDDFQKKWQEEMELYRQKVEPLRAE) [AI94-125]	specifically immunoreactive	better competitor; also recorded: competitively inhibit; also recorded: immunoreacts	inhibited; also recorded: immunoreact	–
PYLDDXQKKWQEEMEL (PYLDDFQKKWQEEMEL) [AI99-114]	recognized by the antibody but with decreased specificity	partial reactivity; also recorded: immunoreacted	–	–
PYLDDXQKKWQEEMELYRQKVEP (PYLDDFQKKWQEEMELYRQKVEP) [AI99-121]	–	nearly as well as Apo AI/HDL; also recorded: competitively inhibit; also recorded: immunoreacts	does not bind; also recorded: not a competitive inhibitor	–
